The record followed here is the Deep4Chem optical property database.

Each structure is given as a SMILES string.

A short description of the data set: solvent given as SMILES.

For `CCCCCCC(CCCCCC)N1C(=O)c2cccc3c(-c4ccc(C#N)cc4)ccc(c23)C1=O`, the fluorescence lifetime was determined as 1.02 ns (in CCCCCC); 0.994 ns (in CCCCCCCCCCCCCC); 2.12 ns (in CCCCCCCCCCCO); 2.21 ns (in CCCCO); 2.15 ns (in CN(C)C=O); 1.16 ns (in Cc1ccccc1). The compound also came in with a fluorescence lifetime (in ClC(Cl)Cl) of 1.34 ns.

`COc1cc(OC)c2c(c1)C(=O)c1ccc(OC)cc1-2`: the fluorescence lifetime runs as follows: (in C1CCCCC1) 4.4 ns; (in CC#N) 1.2 ns.

For `Cc1ccc2c(c1)C1(c3ccccc3-c3ccccc31)c1cc(C)ccc1N2c1ccc(-c2nc(-c3ccccc3)cc(-c3ccccc3)n2)cc1`, the fluorescence lifetime (in O=P(c1ccccc1)(c1ccccc1)c1ccc2oc3ccc(P(=O)(c4ccccc4)c4ccccc4)cc3c2c1) came to 12 ns.

Compound `COC(=O)C12N=N[C@](C(=O)OC)(C3C4CCC(C4)C31)C1[C@@H]3CC[C@@H](C3)[C@H]12` (stereo partly specified) yielded a fluorescence lifetime (in CC#N) of 273 ns.

For `O=C1c2cc(F)ccc2-c2cnccc21`, the fluorescence lifetime is 5.6 ns (in CC#N), 6.6 ns (in CCOC(C)=O), 4.5 ns (in Cc1ccccc1) and 6.3 ns (in ClCCl).

`CCN(CC)c1ccc2c(c1)oc(=O)c1c(C)nc3c(c(-c4ccccc4)nn3C)c12` yielded a fluorescence lifetime (in ClCCl) of 4.28 ns.

As for `COc1ccc(-c2c(-c3ccc(OC)cc3)c3c4c(cccc4c2-c2ccccc2)C(=O)c2ccccc2-3)cc1`, the fluorescence lifetime worked out at 2.3 ns (in CC#N) and 0.8 ns (in CO).

As for `O=Cc1ccc2ccc3cccc4ccc1c2c34`, the fluorescence lifetime was 127 ns (in C1CCOC1); 8.76 ns (in CC#N); 7.43 ns (in CCCCCC); 6.44 ns (in CCO); 64.8 ns (in CN(C)C=O); 0.953 ns (in CO). Moreover, the fluorescence lifetime by setting is: (in Cc1ccccc1) 15.3 ns; (in ClCCl) 3.45 ns.

Regarding `CN(C)c1ccc(C#Cc2ccc(-c3nc(C#N)c(C#N)n3C)cc2)cc1`, the fluorescence lifetime is 1.2 ns (in C1CCCCC1) and 1.7 ns (in ClC(Cl)Cl).

In turn, `F[B-]1(F)n2c(/C=C/c3ccc(C(=C(c4ccccc4)c4ccccc4)c4ccccc4)cc3)ccc2C(c2ccccc2)=C2C=CC(/C=C/c3ccc(C(=C(c4ccccc4)c4ccccc4)c4ccccc4)cc3)=[N+]21` yielded a fluorescence lifetime (in C1CCOC1) of 3.98 ns.

Turning to `N#Cc1ccc(-n2c(-c3ccc(-c4ccc(N(c5ccccc5)c5ccccc5)cc4)s3)nc3c4ccccc4c4ccccc4c32)c2ccccc12`, where the note is “in ClCCl”, the fluorescence lifetime came out at 5.4 ns.

With `Nc1ccc2cc3ccccc3cc2c1`, where the note is “in C1CCCCC1”, the fluorescence lifetime stood at 33 ns.

Regarding `COc1cc(OC)c2c(c1)C(=O)c1cc(OC)cc(OC)c1-2`, the fluorescence lifetime (in C1CCCCC1) turned out to be 0.8 ns.

As for `O=C1c2ccccc2-c2nc3c(F)c(F)c(F)c(F)c3n21`, the fluorescence lifetime (in ClCCl) is 9.5 ns.

`O=C1NC(=O)c2ccc(N3CCCCC3)c3cccc1c23`: the fluorescence lifetime is, setting by setting: (in C1CCOC1) 7.02 ns; (in ClC(Cl)Cl) 8.86 ns; (in ClCCl) 7.02 ns.

`C[N+]1=c2ccc3c(c2C(C)(C)CC1)Oc1cc2c(cc1C=3c1ccccc1C(=O)O)C(c1ccccc1C(=O)O)=c1ccc3c(c1O2)C(C)(C)CC[N+]=3C`: the fluorescence lifetime (in ClC(Cl)Cl) came out at 2.48 ns.

In the case of `CCCCCCCCC1(CCCCCCCC)c2ccccc2-c2ccc(-c3nnc(-c4cccc(-n5c6ccc(C(C)(C)C)cc6c6cc(C(C)(C)C)ccc65)c4)o3)cc21`, the fluorescence lifetime (in Cc1ccccc1) was found to be 7.65 ns.

For `c1ccc(Nc2nc(Nc3ccccc3)nc(Nc3ccc4c5cccc6cccc(c7cccc3c74)c65)n2)cc1`, the fluorescence lifetime was determined as 3.6 ns (in CCOC(C)=O) and 4.3 ns (in CS(C)=O).

`COC(=O)c1cc(=O)n(Cc2ccccc2)c2cc(-c3ccc(OC)cc3)sc12`: the fluorescence lifetime (in ClCCl) came to 2.06 ns.

`COc1ccc(C2=C3C(C)=CC(C)=[N+]3[B-](F)(F)n3c(C)cc(C)c32)cc1` gave a fluorescence lifetime (in Cc1ccccc1) of 4.86 ns.

Where the note is “in Cc1ccccc1”, `CN(C)c1ccc(C2=Nc3sc4cc(F)ccc4[n+]3[B-](F)(F)O2)cc1` displayed a fluorescence lifetime of 1.68 ns.

Compound `CNc1ccc2c(c1)-c1ccccc1C2=O` had a fluorescence lifetime (in CC#N) of 4.3 ns and a fluorescence lifetime (in c1ccccc1) of 9.4 ns.

Consider `N#Cc1ccc(C2=Cc3cc4ccccc4cc3P2(=O)c2ccccc2)cc1` (stereo unspecified), for which, under “in ClCCl”, the fluorescence lifetime stood at 2.5 ns.
